pIC50: −log10 of the molar value.
What was measured:
[1] = molecular target: Homeodomain-interacting protein kinase 4 (Homo sapiens, UniProt Q8NE63); assay: Inhibition of human HIPK4 using RRRFRPASPLRGPPK as substrate after 40 mins by [gamma-33ATP] radiometric assay
[2] = molecular target: Serine/threonine-protein kinase B-raf (Homo sapiens, UniProt P15056); assay: Inhibition of recombinant full length human B-Raf (416 to end residues) using myelin basic protein substrate incubated for 40 mins in presence of [gamma-33ATP] by scintillation counting based radiometry assay
Sequence of Serine/threonine-protein kinase B-raf (P15056 whole entry): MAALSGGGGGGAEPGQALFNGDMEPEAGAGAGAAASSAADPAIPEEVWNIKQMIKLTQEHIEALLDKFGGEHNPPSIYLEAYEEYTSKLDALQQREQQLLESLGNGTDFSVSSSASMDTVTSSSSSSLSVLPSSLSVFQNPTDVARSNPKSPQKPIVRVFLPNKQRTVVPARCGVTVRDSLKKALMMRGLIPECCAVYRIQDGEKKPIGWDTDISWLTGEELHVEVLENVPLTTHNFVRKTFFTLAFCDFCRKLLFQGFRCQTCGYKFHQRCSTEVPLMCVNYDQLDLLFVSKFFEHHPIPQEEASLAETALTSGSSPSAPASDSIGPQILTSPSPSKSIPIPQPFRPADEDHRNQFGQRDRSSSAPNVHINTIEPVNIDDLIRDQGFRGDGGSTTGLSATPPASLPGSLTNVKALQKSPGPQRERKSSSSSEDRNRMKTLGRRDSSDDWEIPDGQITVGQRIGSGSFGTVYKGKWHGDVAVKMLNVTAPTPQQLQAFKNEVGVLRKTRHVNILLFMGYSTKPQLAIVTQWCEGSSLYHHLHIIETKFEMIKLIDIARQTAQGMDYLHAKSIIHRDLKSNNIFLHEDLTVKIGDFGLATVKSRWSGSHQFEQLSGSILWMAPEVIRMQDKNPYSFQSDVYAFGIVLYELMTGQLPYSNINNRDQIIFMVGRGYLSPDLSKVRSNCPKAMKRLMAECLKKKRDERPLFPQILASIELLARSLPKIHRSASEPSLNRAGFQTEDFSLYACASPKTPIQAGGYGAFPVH

[3] = molecular target: Tyrosine-protein kinase Blk (Homo sapiens, UniProt P51451); assay: Inhibition of recombinant full length human BLK using poly(Glu, Tyr) 4:1 as substrate incubated for 40 mins in presence of [gamma-33ATP] by scintillation counting based radiometry assay
Sequence of Tyrosine-protein kinase Blk (P51451 whole entry): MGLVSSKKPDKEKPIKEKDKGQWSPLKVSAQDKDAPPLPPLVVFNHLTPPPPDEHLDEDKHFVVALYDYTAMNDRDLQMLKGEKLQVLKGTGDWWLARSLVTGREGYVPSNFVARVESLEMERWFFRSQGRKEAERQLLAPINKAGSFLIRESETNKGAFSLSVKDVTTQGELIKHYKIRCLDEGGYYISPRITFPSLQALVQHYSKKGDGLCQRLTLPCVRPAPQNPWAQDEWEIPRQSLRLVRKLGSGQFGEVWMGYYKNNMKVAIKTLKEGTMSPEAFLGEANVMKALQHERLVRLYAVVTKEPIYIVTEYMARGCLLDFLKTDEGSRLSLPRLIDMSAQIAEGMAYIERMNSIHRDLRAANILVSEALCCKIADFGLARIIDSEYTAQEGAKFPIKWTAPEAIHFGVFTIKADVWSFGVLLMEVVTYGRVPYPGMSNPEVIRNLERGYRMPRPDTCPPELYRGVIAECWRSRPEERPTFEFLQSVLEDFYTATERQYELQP

MDA-MB-231 = assay: Growth inhibition of human MDA-MB-231 cells incubated for 3 days by MTT assay; assay type: functional; conditions: MDA-MB-231, 72 h, time 3 day
BaF3 [4] = assay: Growth inhibition of mouse BaF3 cells harboring RET M918T mutant incubated for 3 days by MTT assay; assay type: functional; conditions: BaF3, 72 h, time 3 day
[5] = Half life in Sprague-Dawley rat at 10 mg/kg, po measured upto 24 hrs by LC-MS/MS analysis; assay type: ADME, organism-based; conditions: in vivo
BaF3 [6] = assay type: functional; conditions: Mus musculus, BaF3, 72 h; time 3 day
SK-MEL-1 = assay: Growth inhibition of human SK-MEL-1 cells incubated for 3 days by MTT assay; assay type: functional; conditions: SK-MEL-1, 72 h, time 3 day
[7] = molecular target: Tyrosine-protein kinase HCK (Homo sapiens, UniProt P08631); assay: Inhibition of human HCK (230 to 497 residues) using […] as substrate after 40 mins by [gamma-33ATP] radiometric assay
[8] = molecular target: Proto-oncogene tyrosine-protein kinase receptor Ret (Homo sapiens, UniProt P07949, V804M)
[9] = molecular target: Tyrosine-protein kinase receptor UFO (Homo sapiens, UniProt P30530); assay: Inhibition of recombinant human Axl (473 to end residues) using KKSRGDYMTMQIG as substrate incubated for 40 mins in presence of [gamma-33ATP] by scintillation counting based radiometry assay
Angiopoietin-1 receptor = Angiopoietin-1 receptor (Homo sapiens, UniProt Q02763); assay: Inhibition of recombinant human TIE2 (771 to end residues) using poly(Glu, Tyr) 4:1 as substrate incubated for 40 mins in presence of [gamma33P]ATP by scintillation counting based radiometry assay
CDK4/Cyclin D3 = CDK4/Cyclin D3 (Homo sapiens, UniProt P11802); assay: Inhibition of recombinant full length human CDK4/CyclinD3 using Rb fragment as substrate incubated for 40 mins in presence of [gamma-33ATP] by scintillation counting based radiometry assay; assay type: protein-complex assay
[10] = molecular target: Fibroblast growth factor receptor 1 (Homo sapiens, UniProt P11362)
Sequence of Fibroblast growth factor receptor 1 (P11362 whole entry): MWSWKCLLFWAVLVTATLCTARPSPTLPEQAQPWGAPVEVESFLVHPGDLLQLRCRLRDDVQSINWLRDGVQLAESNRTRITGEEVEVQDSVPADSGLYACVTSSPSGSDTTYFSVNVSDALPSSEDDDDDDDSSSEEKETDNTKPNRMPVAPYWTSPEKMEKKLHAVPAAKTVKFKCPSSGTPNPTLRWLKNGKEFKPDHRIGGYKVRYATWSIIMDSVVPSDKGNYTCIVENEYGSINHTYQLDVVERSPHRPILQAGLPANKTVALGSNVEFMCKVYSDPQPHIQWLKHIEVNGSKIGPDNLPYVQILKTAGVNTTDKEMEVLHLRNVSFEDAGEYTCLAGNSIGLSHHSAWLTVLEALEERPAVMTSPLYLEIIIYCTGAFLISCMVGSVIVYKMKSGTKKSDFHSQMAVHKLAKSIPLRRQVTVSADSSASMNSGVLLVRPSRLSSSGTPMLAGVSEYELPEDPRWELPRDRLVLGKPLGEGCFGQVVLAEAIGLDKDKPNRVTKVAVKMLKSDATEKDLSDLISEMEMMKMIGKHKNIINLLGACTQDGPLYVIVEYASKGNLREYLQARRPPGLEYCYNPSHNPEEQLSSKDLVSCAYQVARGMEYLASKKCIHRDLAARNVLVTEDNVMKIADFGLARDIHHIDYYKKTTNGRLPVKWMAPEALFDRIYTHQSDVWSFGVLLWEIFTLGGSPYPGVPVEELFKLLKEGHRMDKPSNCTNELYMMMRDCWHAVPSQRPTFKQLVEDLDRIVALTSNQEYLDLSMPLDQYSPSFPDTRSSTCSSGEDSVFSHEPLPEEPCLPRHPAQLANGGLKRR

[11] = molecular target: Mast/stem cell growth factor receptor Kit (Homo sapiens, UniProt P10721); assay: Inhibition of recombinant human C-Kit using poly(Glu, Tyr) 4:1 as substrate incubated for 40 mins in presence of [gamma-33ATP] by scintillation counting based radiometry assay
[12] = Clearance in Sprague-Dawley rat at 10 mg/kg, po measured upto 24 hrs by LC-MS/MS analysis; assay type: ADME, organism-based; conditions: in vivo
[13] = Cmax in Sprague-Dawley rat at 10 mg/kg, po measured upto 24 hrs by LC-MS/MS analysis; assay type: ADME, organism-based; set-up: route oral, dose 10 mg/kg, time <=24; conditions: in vivo
[14] = molecular target: Mitogen-activated protein kinase 12 (Homo sapiens, UniProt P53778); assay: Inhibition of recombinant human full length SAPK3 using myelin basic protein as substrate incubated for 40 mins in presence of [gamma33P]ATP by scintillation counting based radiometry assay
[15] = Growth inhibition of […] NIH3T3 cells incubated for 3 days by MTT assay; assay type: functional; conditions: NIH3T3, 72 h; time 3 day
[16] = molecular target: Macrophage-stimulating protein receptor (Homo sapiens, UniProt Q04912); assay: Inhibition of recombinant human Ron (983 to end residues) using GGMEDIYFEFMGGKKK as substrate incubated for 40 mins in presence of [gamma33P]ATP by scintillation counting based radiometry assay
[17] = molecular target: Serine/threonine-protein kinase Nek9 (Homo sapiens, UniProt Q8TD19); assay: Inhibition of recombinant human NEK9 (1 to 324 residues) using myelin basic protein as substrate measured after 40 mins in presence of [gamma33P]ATP by scintillation counting based radiometry assay
Sequence of Serine/threonine-protein kinase Nek9 (Q8TD19 whole entry, the tested form may be a part): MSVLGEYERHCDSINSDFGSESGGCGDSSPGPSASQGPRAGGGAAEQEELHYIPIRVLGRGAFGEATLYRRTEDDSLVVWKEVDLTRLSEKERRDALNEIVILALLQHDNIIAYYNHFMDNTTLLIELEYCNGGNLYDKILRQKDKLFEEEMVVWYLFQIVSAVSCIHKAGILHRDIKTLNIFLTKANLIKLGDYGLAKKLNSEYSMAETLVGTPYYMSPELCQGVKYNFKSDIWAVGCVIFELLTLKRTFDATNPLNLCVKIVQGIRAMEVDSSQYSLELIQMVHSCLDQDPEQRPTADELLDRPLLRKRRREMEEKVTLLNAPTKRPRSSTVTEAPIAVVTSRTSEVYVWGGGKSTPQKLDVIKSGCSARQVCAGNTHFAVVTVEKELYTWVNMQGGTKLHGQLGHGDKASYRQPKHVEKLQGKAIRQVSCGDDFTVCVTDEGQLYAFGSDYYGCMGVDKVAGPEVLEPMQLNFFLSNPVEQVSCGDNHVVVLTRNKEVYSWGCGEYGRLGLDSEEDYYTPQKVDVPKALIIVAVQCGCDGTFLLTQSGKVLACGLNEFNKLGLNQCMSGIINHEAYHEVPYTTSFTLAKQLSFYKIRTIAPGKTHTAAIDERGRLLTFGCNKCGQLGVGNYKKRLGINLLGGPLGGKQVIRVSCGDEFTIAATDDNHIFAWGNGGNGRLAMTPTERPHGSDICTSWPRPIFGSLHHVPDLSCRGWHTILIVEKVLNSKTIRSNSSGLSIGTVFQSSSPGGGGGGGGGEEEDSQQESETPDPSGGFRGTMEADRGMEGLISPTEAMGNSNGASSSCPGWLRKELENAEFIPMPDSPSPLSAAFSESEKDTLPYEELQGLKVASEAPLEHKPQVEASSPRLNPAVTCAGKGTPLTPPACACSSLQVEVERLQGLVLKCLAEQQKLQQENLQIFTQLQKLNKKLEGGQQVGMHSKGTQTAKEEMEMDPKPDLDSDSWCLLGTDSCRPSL

Ramos = assay: Growth inhibition of human Ramos cells incubated for 3 days by MTT assay; assay type: functional; conditions: 72 h, time 3 day
[18] = molecular target: Tyrosine-protein kinase FRK (Homo sapiens, UniProt P42685); assay: Inhibition of recombinant human PTK5 (218 to end residues) using GGEEEEYFELVKKKK as substrate incubated for 40 mins in presence of [gamma33P]ATP by scintillation counting based radiometry assay
BHT-101 = assay: Growth inhibition of human BHT-101 cells incubated for 3 days by MTT assay; assay type: functional; conditions: BHT-101, 72 h, time 3 day
[19] = molecular target: High affinity nerve growth factor receptor (Homo sapiens, UniProt P04629)
[20] = molecular target: Mitogen-activated protein kinase kinase kinase 7 (Homo sapiens, UniProt O43318); assay: Inhibition of recombinant human TAK1 (1 to 303 residues) using casein as substrate incubated for 40 mins in presence of [gamma33P]ATP by scintillation counting based radiometry assay
[21] = molecular target: Discoidin domain-containing receptor 2 (Homo sapiens, UniProt Q16832); assay: Inhibition of recombinant human DDR2 (467 to end residues) using KKSRGDYMTMQIG as substrate incubated for 40 mins in presence of [gamma-33ATP] by scintillation counting based radiometry assay
Sequence of Discoidin domain-containing receptor 2 (Q16832 whole entry, the tested form may be a part): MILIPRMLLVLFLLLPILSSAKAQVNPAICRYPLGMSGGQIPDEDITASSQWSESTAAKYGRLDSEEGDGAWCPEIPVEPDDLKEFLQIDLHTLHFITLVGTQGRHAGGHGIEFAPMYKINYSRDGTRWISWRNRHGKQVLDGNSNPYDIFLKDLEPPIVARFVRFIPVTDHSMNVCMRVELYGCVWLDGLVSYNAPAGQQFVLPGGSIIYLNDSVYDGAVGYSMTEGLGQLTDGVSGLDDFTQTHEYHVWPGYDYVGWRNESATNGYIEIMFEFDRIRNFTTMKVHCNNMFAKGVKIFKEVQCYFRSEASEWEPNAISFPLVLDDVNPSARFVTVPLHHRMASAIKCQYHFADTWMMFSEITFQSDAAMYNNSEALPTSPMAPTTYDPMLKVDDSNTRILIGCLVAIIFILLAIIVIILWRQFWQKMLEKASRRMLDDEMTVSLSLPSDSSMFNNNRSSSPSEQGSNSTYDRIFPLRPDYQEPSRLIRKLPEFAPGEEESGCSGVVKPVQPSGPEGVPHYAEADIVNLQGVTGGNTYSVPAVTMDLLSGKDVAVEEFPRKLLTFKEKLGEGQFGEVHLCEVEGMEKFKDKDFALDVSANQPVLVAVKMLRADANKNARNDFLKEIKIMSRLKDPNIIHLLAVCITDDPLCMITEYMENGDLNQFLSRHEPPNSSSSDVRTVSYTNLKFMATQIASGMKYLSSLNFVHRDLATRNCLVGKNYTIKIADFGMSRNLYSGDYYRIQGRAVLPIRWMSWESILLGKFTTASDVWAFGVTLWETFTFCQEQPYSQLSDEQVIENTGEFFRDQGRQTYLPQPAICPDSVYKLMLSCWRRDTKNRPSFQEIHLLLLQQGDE

[22] = Tmax in Sprague-Dawley rat at 10 mg/kg, po measured upto 24 hrs by LC-MS/MS analysis; assay type: ADME, organism-based; conditions: in vivo
HepG2 = assay: Growth inhibition of human HepG2 cells incubated for 3 days by MTT assay; assay type: functional; conditions: HepG2, 72 h, time 3 day
Ephrin type-A receptor 7 = Ephrin type-A receptor 7 (Homo sapiens, UniProt Q15375); assay: Inhibition of recombinant human EphA7 (613 to 909 residues) using KTFCGTPEYLAPEVRREPRILSEEEQEMFRDFDYIADWC as substrate incubated for 40 mins in presence of [gamma-33ATP] by scintillation counting based radiometry assay
[23] = molecular target: Macrophage colony-stimulating factor 1 receptor (Homo sapiens, UniProt P07333)
Sequence of Macrophage colony-stimulating factor 1 receptor (P07333 whole entry): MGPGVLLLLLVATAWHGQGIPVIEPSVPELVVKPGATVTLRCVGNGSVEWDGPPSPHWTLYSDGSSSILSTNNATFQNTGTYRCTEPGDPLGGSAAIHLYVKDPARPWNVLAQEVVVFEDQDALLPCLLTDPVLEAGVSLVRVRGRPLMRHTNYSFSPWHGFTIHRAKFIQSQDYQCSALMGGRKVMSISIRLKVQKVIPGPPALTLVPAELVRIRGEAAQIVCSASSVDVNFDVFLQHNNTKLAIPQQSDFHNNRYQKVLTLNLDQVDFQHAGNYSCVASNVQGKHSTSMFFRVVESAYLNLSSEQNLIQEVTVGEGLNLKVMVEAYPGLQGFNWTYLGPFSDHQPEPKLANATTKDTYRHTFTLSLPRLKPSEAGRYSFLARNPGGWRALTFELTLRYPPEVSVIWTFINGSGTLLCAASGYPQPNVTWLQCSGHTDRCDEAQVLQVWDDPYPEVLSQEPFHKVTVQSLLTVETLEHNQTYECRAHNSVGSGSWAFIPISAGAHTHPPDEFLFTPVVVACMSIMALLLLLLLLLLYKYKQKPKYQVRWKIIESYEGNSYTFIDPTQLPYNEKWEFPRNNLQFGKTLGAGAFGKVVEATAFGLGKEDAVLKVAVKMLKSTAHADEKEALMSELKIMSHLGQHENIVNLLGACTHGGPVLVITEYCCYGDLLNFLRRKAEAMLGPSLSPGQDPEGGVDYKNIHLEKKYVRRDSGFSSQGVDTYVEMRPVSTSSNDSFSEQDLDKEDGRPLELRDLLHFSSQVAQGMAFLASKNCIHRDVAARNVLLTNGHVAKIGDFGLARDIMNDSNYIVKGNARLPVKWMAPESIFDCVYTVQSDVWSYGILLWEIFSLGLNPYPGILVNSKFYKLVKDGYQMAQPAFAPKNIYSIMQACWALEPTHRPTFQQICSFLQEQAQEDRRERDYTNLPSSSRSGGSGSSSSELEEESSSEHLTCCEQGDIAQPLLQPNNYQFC

[24] = Growth inhibition of human C643 cells incubated for 3 days by MTT assay; assay type: functional; conditions: C643, 72 h, time 3 day
[25] = molecular target: Tyrosine-protein kinase Lyn (Homo sapiens, UniProt P07948); assay: Inhibition of recombinant human Lyn using poly(Glu, Tyr) 4:1 as substrate after 40 mins in presence of [gamma-33ATP] by scintillation counting based radiometry assay
[26] = molecular target: Mitogen-activated protein kinase 13 (Homo sapiens, UniProt O15264); assay: Inhibition of recombinant human full length SAPK4 using myelin basic protein as substrate incubated for 40 mins in presence of [gamma33P]ATP by scintillation counting based radiometry assay

CC(C)(C)c1cc(NC(=O)Nc2ccc(Nc3ncnc4c3OCCCN4)cc2)no1
pIC50 [1]: 6.90
pIC50 [2]: 6.02
pIC50 [3]: 5.72
GI50 (MDA-MB-231): > 10000 nM
GI50 (BaF3 [4]): 870 nM
half-life [5]: 92.3 min
GI50 (BaF3 [6]): 1130 nM
GI50 (SK-MEL-1): > 10000 nM
pIC50 [7]: 7.06
pIC50 [8]: 7.82
pIC50 [9]: 6.15
pIC50 (Angiopoietin-1 receptor): 6.39
pIC50 (CDK4/Cyclin D3): 5.95
pIC50 [10]: 6.06
pIC50 [11]: 6.66
CL/F [12]: 0.383 mL/min/kg
Cmax [13]: 263 µg/mL
pIC50 [14]: 6.70
GI50 [15]: > 10000 nM
pIC50 [16]: 5.90
pIC50 [17]: 5.74
GI50 (Ramos): > 10000 nM
pIC50 [18]: 7.29
GI50 (BHT-101): > 10000 nM
pIC50 [19]: 7.15
pIC50 [20]: 6.32
pIC50 [21]: 7.26
Tmax [22]: 15 min
GI50 (HepG2): > 10000 nM
pIC50 (Ephrin type-A receptor 7): 6.70
pIC50 [23]: 8.05
GI50 [24]: > 10000 nM
pIC50 [25]: 6.91
pIC50 [26]: 6.67

From ChEMBL document CHEMBL4765237, “Structural optimization and structure-activity relationship studies of N-phenyl-7,8-dihydro-6H-pyrimido[5,4-b][1,4]oxazin-4-amine derivatives as a new class of inhibitors of RET and its drug resistance mutants” (Eur J Med Chem, 2018)
